Experimental data published in patent publication US20210186947A1, “TOMM6-INTERACTING EXTRACTS AND COMPOUNDS FOR USE IN THE TREATMENT AND PROPHYLAXIS OF NERVOUS SYSTEM DISEASES, ATHEROSCLEROSIS, HEPATITIS B INFECTION AND HUMAN PAPILLOMA VIRUS (HPV) INFECTION” (ETH ZURICH, priority 2018, published 2021).

Key:
Tomm6 = biological target: T1, Tomm6 (Mus musculus, UniProt Q9CQN3); assay: Immunoblot detection of hippocampal Tomm6 protein in treated Tg2576 mice; type: in vivo
T1 construct: hippocampi were isolated from 5-10 aged Tg2576 mice, pulverized under liquid nitrogen and solubilized; from tissue; host or cells: hippocampus of Tg2576 mice
T1 sequence (Q9CQN3 1-74): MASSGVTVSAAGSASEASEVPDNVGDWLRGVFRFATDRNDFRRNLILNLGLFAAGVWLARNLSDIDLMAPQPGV

[1] = tested on: angiotensin II AT2 receptor (AT2R, AGTR2); assay: AT2R protein aggregation assay in HEK cells, immunoblot; type: cell-based, human; settings: 10 microM for 72 h
Procedure: Proteins were also extracted from yeast cells and HEK cells expressing the indicated protein (i.e. HBsAg or AGTR2) as described above. Neuronal cell loss and hyperphosphorylated Tau in hippocampi of 15 months-old Tg2576 mice subjected to the CUMS protocol for 3 months was determined with crude homogenates of dissected hippocampi by direct binding assay with neuron-specific [^125I]-labeled anti-NeuN antibody (MAB377, clone A60, EMD Millipore, Merck KGaA, Darmstadt, Germany) and [^125I]-labeled AT8 antibody similarly as described (AbdAlla et al., J. Biol. Chem. 284, 6554-6565 (2009)).
In the second non-Abeta-based protein aggregation assay, different plant extracts were tested in a mammalian cell system, which analyzed the protein aggregation of the angiotensin II AT2 receptor (AT2R, AGTR2) protein in human embryonic kidney (HEK) cells. The system has physiological relevance because this cellular system is capable to reproduce AT2R protein aggregation, which also occurs in brains of AD patients and AD animal models (AbdAlla et al., J. Biol. Chem. 284, 6554-6565 (2009); AbdAlla et al., J. Biol. Chem. 284, 6566-6574 (2009)). The AT2 receptor in human embryonic kidney (HEK) cells forms stable dimers/oligomers under pro-oxidant conditions, which are resistant to urea-containing reducing SDS-PAGE (FIG. 2A, and AbdAlla et al., J. Biol. Chem. 284, 6566-6574 (2009)). […]

[2] = mouse, in vivo, po, 100 mg/kg/day
[3] = tested on: hyperphosphorylated PHF-Tau; assay: Hippocampal hyperphosphorylated PHF-Tau in Tg2576 mice subjected to CUMS, binding assay with [125I]-labeled AT8 antibody; type: in vivo; settings: 15 months-old Tg2576 mice, 3 months of CUMS, treated during CUMS; compounds 10 mg/kg/d
[4] = tested on: hippocampal neuronal cell bodies (NeuN); assay: Hippocampal neuronal loss in Tg2576 mice subjected to CUMS, binding assay with [125I]-labeled anti-NeuN antibody; type: in vivo; settings: 15 months-old Tg2576 mice, 3 months of CUMS, treated during CUMS; compounds 10 mg/kg/d
[5] = Measurement of serum level in rats by HPLC; type: in vivo, Sprague Dawley rats
Procedure: (§1) Serum concentrations of alizarin were determined with serum isolated from the blood of male and female German shepherd dogs (age: 8-9 months) taken at different time points (0.5 h, 1 h, 2 h, 4 h, 6 h, 8 h, 24 h) after oral intake of the indicated doses for 4 weeks. In addition, serum concentrations of alizarin (Compound-1) were determined in male and female Sprague Dawley rats (body weight: 200-250 g) treated for 1 month and/or three months by oral gavage of alizarin at a once daily dose of 100 mg/kg, 50 mg/kg, 25 mg/kg and 12.5 mg/kg. Serum proteins were removed by acetonitrile precipitation, and alizarin was extracted by chloroform before separation on an HPLC-C18 column (Poroshell 120 EC-C18, 3.0×50 mm, Agilent) with an HPLC system (Agilent 1100 Series) and detection at OD245 nm. For quantitative determination of Compound-7 and Compound-10F in rat and dog serum, serum proteins were also removed by acetonitrile precipitation before HPLC analysis as detailed above and detection at OD254 nm.

[6] = Toxic adverse effects during 3 months of treatment of Tg2576 AD mice; type: in vivo; settings: daily dose of 10 mg/kg
Agtr2 (AT2R) = assay: Immunoblot detection of Agtr2 in PBMCs of aged rats subjected to CUMS; type: in vivo, rats (Sprague Dawley); settings: 4 weeks of CUMS, treated during CUMS
[7] = tested on: hyperphosphorylated PHF tau; assay: Hippocampal hyperphosphorylated PHF tau in aged rats subjected to CUMS, immunoblot; type: in vivo, rats (Sprague Dawley); settings: 4 weeks of CUMS, 10 mg/kg/d during CUMS
aggregated Agtr2 = assay: ELISA of aggregated Agtr2 protein in PBMC of rats subjected to CUMS; type: in vivo, rats (Sprague Dawley); settings: aged rats, 4 weeks of CUMS, treated during CUMS
Source text: More preferably, AGTR2 aggregation is detected with a sandwich ELISA. To this end the following steps can be performed: • (i) The first step of the sandwich ELISA is the immobilization of AGTR2-specific capture antibodies (any species, e.g. rabbit, rat, mouse, cameloid; serum, affinity-enriched; F(ab)2 fragments, nanobodies as generated in step (vi)) on an ELISA plate (Nunc Maxisorb), 0.1-10 microg/well, preferably 1-5 microg, more preferably, 1-2 microg in 100 microL of a suitable buffer (e.g. 0.1 M sodium acetate, 0.1 M NaCl, pH 5.5; or 15.9 mM Na2CO3, 35 mM NaHCO3, pH 9.6) by overnight incubation at 4° C. […] After the incubation time, unbound antibody is removed by washing steps (without Tween 20). • (v) Bound antibody is detected by a substrate reaction, which includes the addition of 50-400 microL, preferably 100-200 microL of substrate buffer (18 microL of 30% H2O2 added to 10.5 ml ABTS solution (22 mg ABTS dissolved in 100 ml of 50 mM sodium citrate, pH 4.0-pH 4.5). Any other substrate (e.g. is also feasible. After an incubation time of 1 min-5 h at 4° C.-37° C., preferably 30 min-1 h, more preferably 30 min at 37° C., optical density is measured at 410 nm, e.g. on a plate reader (Versa Max, Molecular Devices). […]

[8] = Measurement of serum level in dogs by HPLC; type: in vivo, German shepherd dogs
Procedure: as §1

In the case of `O=C(O)c1c(O)c(O)c2c(c1O)C(=O)c1ccccc1C2=O` [Compound-2, purpurin-3-carboxylic acid], the “hippocampal protein content of Tomm6” value (Tomm6; aged Tg2576 mice treated for 6 months) was “substantially increased”, the “aggregation of the AT2 receptor” value [1] was “inhibited the aggregation of the AT2 receptor” and the “daily food intake / food consumption” value [2] was “did not significantly alter”. The “hippocampal content of hyperphosphorylated PHF-Tau” value [3] was “inhibited hippocampal PHF-Tau hyperphosphorylation” and the hippocampal neuronal loss [4] was “prevented the CUMS-induced hippocampal neuronal loss”.

With `Cc1nc(CO)cc(-c2ccc(F)cc2)c1C(N)=O` [Compound-10F, 4-(4-fluorophenyl)-6-(hydroxymethyl)-2-methyl-pyridine-3-carboxamide] the “hippocampal Tomm6 protein content” value (Tomm6; Tg2576 AD mice subjected to the CUMS protocol, treated during CUMS (10 mg/kg/d)) was “significantly higher”, the “oral bioavailability / serum concentrations after oral intake” value ([5]; rats) was “had oral bioavailability” and the “oral doses required to achieve equivalent peak serum concentrations, higher in rats compared to dogs” value ([5]; rats vs dogs) was “approximately 10 fold”. For the same molecule, the “time of peak serum concentration” value ([5]; rats, repeated once daily oral intake of 20 mg/kg/d) was 1 h, the toxic adverse effects [6] was “did not show any detectable toxic adverse effects” and the “hippocampal content of hyperphosphorylated PHF-Tau” value [3] was “significantly inhibited the hippocampal accumulation of hyperphosphorylated PHF tau”. For the same molecule, the “PBMC content of monomeric Agtr2” value (Agtr2 (AT2R)) was “significantly higher compared to untreated controls”, the “accumulation of aggregated Agtr2 in PBMCs” value (Agtr2 (AT2R)) was “prevented the accumulation of aggregated Agtr2” and the “hippocampal accumulation of hyperphosphorylated PHF tau” value [7] was “prevented the hippocampal accumulation of hyperphosphorylated PHF tau”. The “PBMC content of aggregated Agtr2 protein (ELISA)” value (aggregated Agtr2) was “significantly retarded the CUMS-induced accumulation of Agtr2 aggregates”, the hippocampal neuronal loss [4] was “retarded the CUMS-induced hippocampal neuronal loss” and the “oral bioavailability / serum concentrations after oral intake” value [8] was “had oral bioavailability”.
